In patent publication US20240391931A1 (Bristol-Myers Squibb Company, priority 2021, published 2024) one finds EC50 data, which are given here for 18 compounds.

Where a name gives a salt, the structure may show the parent alone.

In experiment [1] the target is T1, HER2 wildtype (WT) protein (Homo sapiens, UniProt P04626).
T1 construct: BT474 and N87 cell lines which endogenously overexpress the HER2 wildtype (WT) protein; endogenous in cells; host or cells: BT474, N87
The experiment in a line: HER2 signaling (pHER2 Tyr1248/total HER2 MSD) in BT474 cells. The class given is cell-based. Particulars: 1.5 hr compound, 1% FBS. Summed up: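 BT474, N87 (HER2 WT) and NCI-H1781 (HER2 G776delinsVC) cells were treated for 1.5 h at 37° C in 1% FBS medium with compound at 0.0005–1.1 μM. pHER2 Tyr1248 was measured by MSD on whole-cell lysates and normalized to total HER2 as % DMSO. EC50 came from a variable-slope sigmoidal fit.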

The target in another experiment is HER2YVMA (Homo sapiens, UniProt P04626, INS775YVMA). The experiment in a line: HER2 signaling (pHER2) in Hek293-HER2YVMA cells. The class given is cell-based. Set-up: expressed in transfected cells; host or cells: HEK293 (pool), Ba/F3 (clones), BEAS2B (clones); lentiviral vector pCDH-CMV-MCS-EF1-Neo. Particulars: 1.5 hr compound, 1% FBS, read-out: HEKYVMA pHER2 EC50. The method in brief:
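Lentivirally transduced HER2YVMA lines (HEK293 pool; BEAS2B clone) treated 1.5 h at 37 °C in 1% FBS medium with compound at 0.0005–1.1 μM. Lysates read by MSD immunoassay for pHER2 (Tyr1248) normalized to total HER2, as % DMSO control; EC50 from variable-slope sigmoidal fit.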

By EC50 is commonly meant the concentration needed to bring the measured effect to its halfway point.

HER2YVMA, sequence (P04626 with tags, fused parts or gaps INS775YVMA): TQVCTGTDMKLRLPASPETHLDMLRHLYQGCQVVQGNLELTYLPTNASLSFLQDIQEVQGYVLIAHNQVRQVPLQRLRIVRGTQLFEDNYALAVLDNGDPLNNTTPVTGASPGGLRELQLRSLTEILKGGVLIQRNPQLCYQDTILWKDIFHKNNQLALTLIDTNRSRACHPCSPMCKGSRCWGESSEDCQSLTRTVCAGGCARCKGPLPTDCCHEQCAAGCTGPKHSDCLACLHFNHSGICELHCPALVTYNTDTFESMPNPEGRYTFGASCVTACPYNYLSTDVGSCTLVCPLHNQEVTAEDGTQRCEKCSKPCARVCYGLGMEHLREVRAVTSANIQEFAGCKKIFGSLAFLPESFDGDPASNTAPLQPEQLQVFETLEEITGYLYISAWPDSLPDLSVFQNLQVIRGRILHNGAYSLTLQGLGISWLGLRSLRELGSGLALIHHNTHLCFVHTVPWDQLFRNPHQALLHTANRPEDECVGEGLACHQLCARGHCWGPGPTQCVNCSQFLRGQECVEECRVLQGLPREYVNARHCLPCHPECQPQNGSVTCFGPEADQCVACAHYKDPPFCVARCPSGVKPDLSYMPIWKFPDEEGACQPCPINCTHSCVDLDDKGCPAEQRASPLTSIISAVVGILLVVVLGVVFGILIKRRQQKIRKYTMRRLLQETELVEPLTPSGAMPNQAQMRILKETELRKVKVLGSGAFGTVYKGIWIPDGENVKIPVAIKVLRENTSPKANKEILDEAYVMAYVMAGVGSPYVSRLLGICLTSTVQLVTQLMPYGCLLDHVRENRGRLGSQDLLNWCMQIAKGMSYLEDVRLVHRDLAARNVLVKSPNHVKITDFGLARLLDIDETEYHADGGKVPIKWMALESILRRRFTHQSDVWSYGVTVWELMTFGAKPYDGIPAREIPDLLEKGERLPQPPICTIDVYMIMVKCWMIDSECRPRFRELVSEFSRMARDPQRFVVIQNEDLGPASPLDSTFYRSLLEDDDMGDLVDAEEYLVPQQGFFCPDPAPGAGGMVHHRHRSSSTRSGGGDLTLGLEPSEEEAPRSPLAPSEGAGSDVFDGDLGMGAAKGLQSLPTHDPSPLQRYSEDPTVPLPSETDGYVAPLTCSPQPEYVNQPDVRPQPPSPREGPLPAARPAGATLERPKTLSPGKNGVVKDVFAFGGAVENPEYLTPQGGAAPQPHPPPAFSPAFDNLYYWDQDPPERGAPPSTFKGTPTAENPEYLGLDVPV
T1 sequence (P04626 23-1255): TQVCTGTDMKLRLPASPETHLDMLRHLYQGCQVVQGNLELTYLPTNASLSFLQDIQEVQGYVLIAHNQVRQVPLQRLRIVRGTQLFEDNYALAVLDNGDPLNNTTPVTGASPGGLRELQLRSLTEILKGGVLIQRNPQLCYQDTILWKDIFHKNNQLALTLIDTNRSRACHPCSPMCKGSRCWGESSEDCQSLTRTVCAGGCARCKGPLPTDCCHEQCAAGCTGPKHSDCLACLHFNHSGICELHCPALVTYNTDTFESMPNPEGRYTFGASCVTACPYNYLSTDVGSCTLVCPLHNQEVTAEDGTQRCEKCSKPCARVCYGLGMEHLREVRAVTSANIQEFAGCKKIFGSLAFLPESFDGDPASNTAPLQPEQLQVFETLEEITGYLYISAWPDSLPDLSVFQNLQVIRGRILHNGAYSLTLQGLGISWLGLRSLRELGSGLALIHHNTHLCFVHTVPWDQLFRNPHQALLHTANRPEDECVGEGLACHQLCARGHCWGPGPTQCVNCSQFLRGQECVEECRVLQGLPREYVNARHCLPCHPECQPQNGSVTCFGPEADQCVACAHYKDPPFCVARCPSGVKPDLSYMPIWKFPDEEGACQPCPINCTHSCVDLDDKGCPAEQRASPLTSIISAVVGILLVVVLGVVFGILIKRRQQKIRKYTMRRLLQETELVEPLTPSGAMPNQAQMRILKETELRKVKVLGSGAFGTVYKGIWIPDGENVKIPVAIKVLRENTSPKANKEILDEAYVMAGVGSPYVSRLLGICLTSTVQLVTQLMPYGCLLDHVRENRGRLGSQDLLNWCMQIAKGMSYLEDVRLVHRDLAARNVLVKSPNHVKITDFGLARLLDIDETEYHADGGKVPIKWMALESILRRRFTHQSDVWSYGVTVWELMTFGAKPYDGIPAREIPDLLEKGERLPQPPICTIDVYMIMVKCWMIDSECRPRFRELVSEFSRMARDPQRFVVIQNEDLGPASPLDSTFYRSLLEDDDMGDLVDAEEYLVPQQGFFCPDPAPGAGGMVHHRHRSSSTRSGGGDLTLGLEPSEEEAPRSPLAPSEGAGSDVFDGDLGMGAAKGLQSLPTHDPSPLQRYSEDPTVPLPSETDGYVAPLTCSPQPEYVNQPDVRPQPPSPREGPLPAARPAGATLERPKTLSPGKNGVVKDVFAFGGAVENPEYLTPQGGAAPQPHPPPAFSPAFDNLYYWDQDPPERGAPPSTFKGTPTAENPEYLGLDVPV

Take `Cc1ccc(Oc2ccc(Nc3ncnc4sc5c(c34)C(C)N(C(=O)C=CCN(C)C)C5)cc2C)cn1` (single isomer, unassigned) [Compound 147]: the EC50 (in experiment [1]; on HER2YVMA) was less than 100 nM each time.
With `Cc1ccc(Oc2ccc(Nc3ncnc4sc5c(c34)CCN(C(=O)/C=C/CN3CC[C@@H](CO)C3)C5)cc2C)cn1` [Compound 132], the EC50 (in experiment [1]; at HER2YVMA) was less than 100 nM in each case.
As to `COc1ccc(Oc2ccc(Nc3ncnc4sc5c(c34)C(C)CN(C(=O)C=CCN(C)C)C5)cc2C)cn1` (single isomer, unassigned) [Compound 160], the concentration for a half-maximal effect (EC50) (in experiment [1]; on HER2YVMA) was less than 100 nM in each case.
In the case of `Cc1cc(Nc2ncnc3sc4c(c23)CCN(C(=O)/C=C/CN(C)C)C4)ccc1Oc1ccn2ncnc2c1` [Compound 138, (E)-1-(4-((4-([1,2,4]triazolo[1,5-a]pyridin-7-yloxy)-3-methylphenyl)amino)-5,8-dihydropyrido[4′,3′:4,5]thieno[2,3-d]pyrimidin-7(6H)-yl)-4-(dimethylamino)but-2-en-1-one], the EC50 (in experiment [1]; on HER2YVMA) was less than 100 nM each time.
On to `Cc1cc(Nc2ncnc3sc4c(c23)CCN(C(=O)/C=C/CN(C)C)CC4)ccc1Oc1ccn2ncnc2c1` [Compound 168], for which the values for the EC50 (in experiment [1]; on HER2YVMA) were less than 100 nM and 100 to 350 nM, respectively.
In the same order, the values of `Cc1cn2ccc(Oc3ccc(Nc4ncnc5sc6c(c45)CCN(C(=O)/C=C/CN(C)C)C6)cc3C)cc2n1` [Compound 110, (E)-4-(dimethylamino)-1-(4-((3-methyl-4-((2-methylimidazo[1,2-a]pyridin-7-yl)oxy)phenyl)amino)-5,8-dihydropyrido[4′,3′:4,5]thieno[2,3-d]pyrimidin-7(6H)-yl)but-2-en-1-one] are less than 100 nM and 100 to 350 nM.
In the same order, the values of `COc1ccc(Oc2ccc(Nc3ncnc4sc5c(c34)C(C)CN(C(=O)C=CCN(C)C)C5)cc2C)cn1` (single isomer, unassigned) [Compound 159] are less than 100 nM and less than 100 nM.
In the case of `Cc1ccc(Oc2ccc(Nc3ncnc4sc5c(c34)CN(C(=O)/C=C/CN(C)C)C5C)cc2C)cn1` (stereo not drawn) [Compound 153, (E)-4-(dimethylamino)-1-(7-methyl-4-((3-methyl-4-((6-methylpyridin-3-yl)oxy)phenyl)amino)-5,7-dihydro-6H-pyrrolo[3′,4′:4,5]thieno[2,3-d]pyrimidin-6-yl)but-2-en-1-one], the EC50 (in experiment [1]; at HER2YVMA) was less than 100 nM throughout.
Consider `Cc1ccc(Oc2ccc(Nc3ncnc4sc5c(c34)C(C)CN(C(=O)C=CCN(C)C(C)(C)C)C5)cc2C)cn1` (single isomer, unassigned) [Compound 178], for which the EC50 (in experiment [1]; at HER2YVMA) was less than 100 nM throughout.
For the compound `Cc1ccc(Oc2ccc(Nc3ncnc4sc5c(c34)CCN(C(=O)/C=C/CN3CCC[C@H](n4cccn4)C3)C5)cc2C)cn1` [Compound 112], the EC50 (in experiment [1]; on HER2YVMA) was less than 100 nM each time.
As to `Cc1ccc(Oc2ccc(Nc3ncnc4sc5c(c34)CCN(C(=O)/C=C/CN3CCC[C@@H](CO)C3)C5)cc2C)cn1` [Compound 154], the EC50 (in experiment [1]; at HER2YVMA) was less than 100 nM in each case.
For the compound `Cc1ccc(Oc2ccc(Nc3ncnc4sc5c(c34)CCN(C(=O)/C=C/CN3CC4CCC(C4)C3)C5)cc2C)cn1` [Compound 16, (E)-4-(3-azabicyclo[3.2.1]octan-3-yl)-1-(4-((3-methyl-4-((6-methylpyridin-3-yl)oxy)phenyl)amino)-5,8-dihydropyrido[4′,3′:4,5]thieno[2,3-d]pyrimidin-7(6H)-yl)but-2-en-1-one benzenesulfonate salt], the concentration for a half-maximal effect (EC50) (in experiment [1]; on HER2YVMA) was less than 100 nM throughout.
Regarding `C=CC(=O)N1Cc2sc3ncnc(Nc4ccc(Oc5ccc(C)nc5)c(C)c4)c3c2C(C)C1` (stereo not drawn) [Compound 142, 1-(5-methyl-4-((3-methyl-4-((6-methylpyridin-3-yl)oxy)phenyl)amino)-5,6-dihydropyrido[4′,3′:4,5]thieno[2,3-d]pyrimidin-7(8H)-yl)prop-2-en-1-one], the EC50 (in experiment [1]; on HER2YVMA) was less than 100 nM in each case.
For the compound `Cc1ccc(Oc2ccc(Nc3ncnc4sc5c(c34)CC(C)N(C(=O)C=CCN(C)C)C5C)cc2C)cn1` (single isomer, unassigned) [Compound 162], the EC50 (in experiment [1]; at HER2YVMA) was 100 to 350 nM in each case.
As for `COc1ccc(Oc2ccc(Nc3ncnc4sc5c(c34)CCN(C(=O)/C=C/CN3CC[C@H](CO)C3)C5)cc2C)cn1` [Compound 140], the EC50 (in experiment [1]; on HER2YVMA) was less than 100 nM in each case.
For the compound `Cc1ccc(Oc2ccc(Nc3ncnc4sc5c(c34)C(C)CN(C(=O)/C=C/CN(C)C)C5)cc2Cl)cn1` (stereo not drawn) [Compound 171, (E)-1-(4-((3-Chloro-4-((6-methylpyridin-3-yl)oxy)phenyl)amino)-5-methyl-5,6-dihydropyrido[4′,3′:4,5]thieno[2,3-d]pyrimidin-7(8H)-yl)-4-(dimethylamino)but-2-en-1-one], the EC50 (in experiment [1]; at HER2YVMA) was less than 100 nM in each case.
For `C=CC(=O)N1CCc2c(sc3ncnc(Nc4ccc(Oc5cccnc5)c(C)c4)c23)C1` [Compound 11, 1-(4-((3-methyl-4-(pyridin-3-yloxy)phenyl)amino)-5,8-dihydropyrido[4′,3′:4,5]thieno[2,3-d]pyrimidin-7(6H)-yl)prop-2-en-1-one], the concentration giving a half-maximal response (EC50) (in experiment [1]; on HER2YVMA) was less than 100 nM each time.
Regarding `Cc1cc(Nc2ncnc3sc4c(c23)CCN(C(=O)/C=C/CN(C)C)C4)ccc1Oc1ccc2scnc2c1` [Compound 107, (E)-1-(4-((4-(benzo[d]thiazol-5-yloxy)-3-methylphenyl)amino)-5,8-dihydropyrido[4′,3′:4,5]thieno[2,3-d]pyrimidin-7(6H)-yl)-4-(dimethylamino)but-2-en-1-one], the concentration for a half-maximal effect (EC50) (in experiment [1]; on HER2YVMA) was less than 100 nM throughout.
